Measured values as given in PMC10154249, “Unique progerin C-terminal peptide ameliorates Hutchinson–Gilford progeria syndrome phenotype by rescuing BUBR1” (Nature Aging, 2023).

How the values were obtained:
Format in all cases: cell-based, human
[1] = tested on: BUBR1, HMGA1, KDM1A, ZNF143 and FOXM1 mRNA; experiment: RT-PCR of BUBR1 and its transcription factors in HGADFN003 cells; settings: for BUBR1 relative (to β-actin) mRNA level (2-ΔΔCt) / FOXM1 relative (to β-actin) mRNA level (2-ΔΔCt) / HMGA1 relative (to β-actin) mRNA level (2-ΔΔCt) / KDM1A relative (to β-actin) mRNA level (2-ΔΔCt) / ZNF143 relative (to β-actin) mRNA level (2-ΔΔCt): Fig. 4a, HGADFN003, vs Mock = 1; for BUBR1 relative (to β-actin) mRNA level (2-ΔΔCt): P=0.0003; for FOXM1 relative (to β-actin) mRNA level (2-ΔΔCt): P=0.2399; for HMGA1 relative (to β-actin) mRNA level (2-ΔΔCt): P=0.9214; for KDM1A relative (to β-actin) mRNA level (2-ΔΔCt): P=0.683; for ZNF143 relative (to β-actin) mRNA level (2-ΔΔCt): P=0.9897
Procedure: RNA preparation was performed as described. Total RNA was extracted using Trizol reagent (TaKaRa) following the manufacturer’s instructions. cDNA was generated with M-MLV reverse transcriptase (Promega, catalog no. M170B). Reverse transcription with PCR (RT-PCR) was performed with SYBR Green Real-Time PCR Master Mix (TaKaRa). RT-PCR was carried out on a QuantStudio 3 Real-Time-PCR Instrument (ABI). Data were analyzed and further processed in QuantStuido Design and Analysis Software and GraphPad Prism v.7. Fold change in gene expression over control samples was calculated using the 2^–ΔΔCt method, where β-actin Ct values were used as an internal control. The primer sequences for PCR, synthesized by Comate Bioscience, were as follows:
β-actin_fwd (5′-[…]-3′) and β-actin_rev (5′-[…]-3′); AURKB_fwd (5′-[…]-3′) and AURKB_rev (5′-[…]-3′); BUB1_ fwd (5′-[…]-3′) and BUB1_rev (5′-[…]-3′); BUB1B_fwd (5′-[…]-3′) and BUB1B_ rev (5′-[…]-3′); CCNA2_fwd (5′-[…]-3′) and CCNA2_ rev (5′-[…]-3′); Mad2l1_fwd (5′-[…]-3′) and Mad2l1_ rev (5′-[…]-3′); TTK1_fwd (5′-[…]-3′) and TTK1_ rev (5′-[…]-3′); PLK1_fwd (5′-[…]-3′) and PLK1_ rev (5′-[…]-3′); PTBP1_fwd (5′-[…]-3′) and PTBP1_ rev (5′-[…]-3′); HMGA1_fwd (5′-[…]-3′) and HMGA1_ rev (5′-[…]-3′); KDM1A1_fwd (5′-[…]-3′) and KDM1A1_ rev (5′-[…]-3′); ZNF143_fwd (5′-[…]-3′) and ZNF143_ rev (5′-[…]-3′); FOXM1_fwd (5′-[…]-3′) and FOXM1_ rev (5′-[…]-3′).

IMR90-progerin cells = experiment: 53BP1 foci in IMR90-progerin cells; settings: IMR90-Flag-progerin+UPCP
Procedure: Immunofluorescence was performed as described previously. Cells were plated on cover slips in 12-well plates, left overnight before the treatment. Cells were fixed in 1% formaldehyde in culture medium for 10 min at 37 °C and permeabilized with 0.2% Triton X-100 in PBS for 10 min at room temperature. Cells were washed twice in PBS and blocked for 1 h with 5% BSA in PBS and then incubated with primary antibodies at 4 °C overnight, washed three times in PBS and incubated with secondary antibodies for 1 h at room temperature. Cell nuclei were counterstained with a 500 nM concentration of 4,6-diamidino-2-phenylindole (DAPI) (Sigma). Images were acquired by a fluorescence microscope (OLYMPUS FV-1000, Carl Zeiss LSM880 or Leica DMi8) and analyzed with software NIS-Elements AR v.5.0.1 (Nikon), FLUOVIEW v.4.2b (OLYMPUS), ZEN v.2.3 SP1 (Carl Zeiss) and Leica Application Suite X v.3.6.0.24 (Leica). Cells were quantified by investigators who were blinded to the identity of the analyzed cell.

senescent IMR90 cells = experiment: SA-β-gal staining of DNA damage-induced senescent IMR90 cells; settings: for SA-β-gal positive cells: UPCP 6 μM 5 days
Procedure: Fibroblasts from patients with HGPS were obtained from The Progeria Research Foundation Cell and Tissue Bank (http://www.progeriaresearch.org). The following fibroblasts were used: HGADFN003, HGADFN167, HGMDFN090 and HGFDFN168. Human dermal fibroblasts (GM00038 and AG09602) were obtained from Coriell Cell Repository (https://catalog.coriell.org). These cells were characterized by DNA fingerprinting and isozyme detection and were tested by a MycoBlue Mycoplasma Detector (Vazyme Biotech) to exclude mycoplasma contamination before the experiments. […] HGADFN003, HGADFN167, HGMDFN090, HGFDFN168, GM00038 and AG09602 were cultured in DMEM medium with 15% (v/v) fetal bovine serum (VivaCell). All cell lines were grown at 37 °C with 5% CO2 and IMR90, CRL-1474, HGADFN003, HGADFN167, HGMDFN090, HGFDFN168, GM00038 and AG09602 were cultured with 5% O2. For bleomycin-induced senescence, IMR90 cells were incubated with the culture medium containing 20 μg ml^–1 Bleomycin (Selleck, catalog no. S1214) for 2 h and analyzed 10 days later, or as otherwise indicated. For doxorubicin-induced senescence, IMR90 cells were treated twice with 100 nM Doxorubicin (Selleck, catalog no. S1208) with a 2 day interval and analyzed 10 days later, or as otherwise indicated. For ionizing radiation (IR)-induced senescence, IMR90 cells were exposed to 10 Gy Gamma rays, and analyzed 10 days later, or as otherwise indicated, the control IMR90 cells were mock irradiated. For etoposide-induced senescence, IMR90 cells incubated with the culture medium containing 10 μM Etoposide (Sigma, catalog no. E1383) for 48 h and analyzed 10 days later, or as otherwise indicated.
SA-β-gal staining was performed as previously described. Cells were fixed in 0.5% glutaraldehyde for 15 min at room temperature, washed three times with PBS (pH 6.0) containing 1 mM MgCl2 and exposed overnight 37 °C to containing 1 mg ml^–1 5-bromo-4-chloro-3-indolyl-β-D-galactopyranoside (MCE, catalog no. HY-15934), 0.12 mM potassium ferrocyanide (Sigma, catalog no. P3289), 0.12 mM potassium ferricyanide (Sigma, catalog no. P8131) and 1 mM MgCl2 PBS buffer (pH 6.0). Cells were washed three times with H2O and observed under a microscope (OLYMPUS CKX53). SA-β-gal positive cells were quantified by investigators who were blinded to the identity of the analyzed cell.

Substance: H-YGRKKRRQRRRYNLRSRTVLCGTCGQPADKASASGSGAQSPQNCSIM-OH (cysteines drawn unpaired) [UPCP, unique progerin C-terminal peptide]
- BUBR1 relative (to β-actin) mRNA level (2-ΔΔCt) ([1]; replicate 1): 5.569
- BUBR1 relative (to β-actin) mRNA level (2-ΔΔCt) ([1]; replicate 2): 6.327
- BUBR1 relative (to β-actin) mRNA level (2-ΔΔCt) ([1]; replicate 3): 4.947
- FOXM1 relative (to β-actin) mRNA level (2-ΔΔCt) ([1]; replicate 1): 1.5201
- FOXM1 relative (to β-actin) mRNA level (2-ΔΔCt) ([1]; replicate 2): 2.139
- FOXM1 relative (to β-actin) mRNA level (2-ΔΔCt) ([1]; replicate 3): 0.8641
- HMGA1 relative (to β-actin) mRNA level (2-ΔΔCt) ([1]; replicate 1): 0.9058
- HMGA1 relative (to β-actin) mRNA level (2-ΔΔCt) ([1]; replicate 2): 1.8337
- HMGA1 relative (to β-actin) mRNA level (2-ΔΔCt) ([1]; replicate 3): 0.3934
- KDM1A relative (to β-actin) mRNA level (2-ΔΔCt) ([1]; replicate 1): 0.9262
- KDM1A relative (to β-actin) mRNA level (2-ΔΔCt) ([1]; replicate 2): 0.9644
- KDM1A relative (to β-actin) mRNA level (2-ΔΔCt) ([1]; replicate 3): 1.24
- ZNF143 relative (to β-actin) mRNA level (2-ΔΔCt) ([1]; replicate 1): 0.3607
- ZNF143 relative (to β-actin) mRNA level (2-ΔΔCt) ([1]; replicate 2): 1.774
- ZNF143 relative (to β-actin) mRNA level (2-ΔΔCt) ([1]; replicate 3): 0.8819
- BUBR1 mRNA expression ([1]; RT-PCR, HGADFN003 cells): could upregulate expression of BUBR1
- expression of transcription factors regulating BUBR1 ([1]; RT-PCR, HGADFN003 cells): had little effect on their expression
- 53BP1 foci per cell, n>10 (IMR90-progerin cells; replicate 1): 54%
- 53BP1 foci per cell, n≤10 (IMR90-progerin cells; replicate 1): 46%
- 53BP1 foci per cell, n>10 (IMR90-progerin cells; replicate 2): 43%
- 53BP1 foci per cell, n≤10 (IMR90-progerin cells; replicate 2): 57%
- 53BP1 foci per cell, n>10 (IMR90-progerin cells; replicate 3): 59%
- 53BP1 foci per cell, n≤10 (IMR90-progerin cells; replicate 3): 41%
- SA-β-gal positive cells (senescent IMR90 cells; BLM (bleomycin 20 μg/mL 2 h), replicate 1): 71.6418%
- SA-β-gal positive cells (senescent IMR90 cells; BLM (bleomycin 20 μg/mL 2 h), replicate 2): 81.25%
- SA-β-gal positive cells (senescent IMR90 cells; BLM (bleomycin 20 μg/mL 2 h), replicate 3): 74.0741%
- SA-β-gal positive cells (senescent IMR90 cells; Dox (doxorubicin 100 nM twice), replicate 1): 76.4706%
- SA-β-gal positive cells (senescent IMR90 cells; Dox (doxorubicin 100 nM twice), replicate 2): 84.6154%
- SA-β-gal positive cells (senescent IMR90 cells; Dox (doxorubicin 100 nM twice), replicate 3): 66.1539%
- SA-β-gal positive cells (senescent IMR90 cells; Eto (etoposide 10 μM 48 h), replicate 1): 80.4348%
- SA-β-gal positive cells (senescent IMR90 cells; Eto (etoposide 10 μM 48 h), replicate 2): 71.7949%
- SA-β-gal positive cells (senescent IMR90 cells; Eto (etoposide 10 μM 48 h), replicate 3): 70.9091%
- rescue of phenotype of DNA damage-induced senescent cells (senescent IMR90 cells; IMR90, 10 days after bleomycin, doxorubicin, ionizing radiation or etoposide): failed to rescue the progeria phenotype of these cells
- SA-β-gal positive cells (senescent IMR90 cells; IR (10 Gy), replicate 1): 77.4193%
- SA-β-gal positive cells (senescent IMR90 cells; IR (10 Gy), replicate 2): 75.5814%
- SA-β-gal positive cells (senescent IMR90 cells; IR (10 Gy), replicate 3): 70.4545%
